From PubChem BioAssay (NCI)
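Five concentrations, 48 hours, 96-well plates. TGI is the concentration that stops growth completely.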

Key:
Assay in all cases: DTP human tumour cell line panel, 48 h
[1] = tested on: SK-MEL-2 melanoma
[2] = tested on: MCF7 breast
[3] = tested on: HS 578T breast
[4] = tested on: CCRF-CEM leukemia
[5] = tested on: PC-3 prostate
[6] = tested on: K-562 leukemia
[7] = tested on: UO-31 renal
[8] = tested on: SK-OV-3 ovarian
[9] = tested on: NCI-H226 lung
[10] = tested on: 786-0 renal

SMILES | TGI [1] | TGI [2] | TGI [3] | TGI [4] | TGI [5] | TGI [6] | TGI [7] | TGI [8] | TGI [9] | TGI [10]
CCN1CCC(O)(C(C(=O)O)c2ccccc2)CC1 (configuration not stated) | > 100 µM | > 100 µM | > 100 µM | > 100 µM | > 100 µM | > 100 µM | > 100 µM | > 100 µM | > 100 µM | –
NC(=O)c1cc2ccccc2o/c1=N/O | > 100 µM | > 100 µM | 91.6 µM | > 100 µM | > 100 µM | > 100 µM | > 100 µM | > 100 µM | > 100 µM | > 100 µM
CCOc1cc(-c2nc3ccccn3c2/N=C/c2cc(Br)ccc2O)ccc1O | > 100 µM | 43.6 µM | > 100 µM | > 100 µM | 73.3 µM | > 100 µM | 84.6 µM | 92.7 µM | > 100 µM | 60.4 µM
CCOC(=O)/C(C#N)=N\Nc1ccc(-n2c(C)nc3ccccc3c2=O)cc1 | > 100 µM | > 100 µM | > 100 µM | > 100 µM | > 100 µM | > 100 µM | > 100 µM | > 100 µM | > 100 µM | > 100 µM
COc1cc2c(/C=C3/C(=O)Nc4ccccc43)c(Cl)[nH]c2cc1C | 25.4 µM | 16.6 µM | > 100 µM | > 67.8 µM | 16.3 µM | 24 µM | 20.7 µM | 0.141 µM | > 100 µM | 13.9 µM
COC(=O)C1=Nc2c(C)nn(-c3ccccc3)c2N=C(c2ccc([N+](=O)[O-])cc2)C1 | – | > 10 µM | > 10 µM | > 10 µM | > 10 µM | > 10 µM | – | > 10 µM | – | > 10 µM
O=C(Cc1ccc([N+](=O)[O-])cc1)OCC#CCOC(=O)Cc1ccc([N+](=O)[O-])cc1 | > 10 µM | > 10 µM | > 10 µM | > 10 µM | > 10 µM | > 10 µM | > 10 µM | > 10 µM | – | > 10 µM
Cn1c2ccccc2n2c(=O)c3cc([N+](=O)[O-])ccc3c(C#N)c12 | > 100 µM | > 100 µM | > 100 µM | > 100 µM | > 100 µM | > 100 µM | > 100 µM | > 100 µM | > 100 µM | > 100 µM
CC1(CNCc2ccccc2)CC(CCc2ccccc2)N(C(=O)c2ccc([N+](=O)[O-])cc2)C1Cc1ccc(O)cc1 (configuration not stated) | 32.7 µM | 19.2 µM | 46.8 µM | > 100 µM | 26.3 µM | > 100 µM | 23.3 µM | 34.6 µM | 24.1 µM | 25.9 µM
COc1cc(CN2CCCCC2)cc2cc(C(=O)O)c(=O)oc12 | > 100 µM | > 100 µM | > 100 µM | > 100 µM | > 100 µM | > 100 µM | > 100 µM | > 100 µM | > 100 µM | > 100 µM
COc1cc(/C=C\C(=O)O)ccc1OCc1ccccc1 | > 100 µM | > 100 µM | > 100 µM | > 100 µM | > 100 µM | > 100 µM | > 100 µM | > 100 µM | – | > 100 µM
COc1ccc2cc(NC(=O)N/N=C\c3ccc(Cl)cc3)ccc2c1 | > 100 µM | > 100 µM | 68.8 µM | > 100 µM | > 100 µM | > 100 µM | > 100 µM | > 100 µM | > 100 µM | > 100 µM
O=C1C=C(c2ccccc2)O/C1=C/C(=O)c1ccc(Cl)cc1 | – | 30.1 µM | 55.5 µM | > 100 µM | 27.3 µM | 33.7 µM | 38.9 µM | > 100 µM | – | 29.9 µM
Cc1cc2[nH]c3c(C#N)c4c(c(=O)n3c2cc1C)CCCC4 | > 100 µM | > 100 µM | > 100 µM | > 100 µM | > 100 µM | > 100 µM | > 100 µM | 27.1 µM | > 100 µM | > 100 µM
Brc1cc2nn(-c3ccccc3)nc2c2nonc12 | > 100 µM | > 100 µM | > 100 µM | > 100 µM | > 100 µM | > 100 µM | > 100 µM | > 100 µM | > 100 µM | > 100 µM
Cc1c2ncccc2cc2oc3ccccc3c(=O)c12 | > 100 µM | > 100 µM | > 100 µM | > 100 µM | > 100 µM | > 100 µM | > 100 µM | > 100 µM | > 100 µM | > 100 µM
CC1(C)C=C(S(=O)(=O)c2ccccc2)Oc2ccccc2O1 | > 100 µM | > 100 µM | > 100 µM | > 100 µM | > 100 µM | > 100 µM | 86.2 µM | > 100 µM | > 100 µM | > 100 µM
NC(N)=NS(=O)(=O)c1ccc(NC(=O)c2ccc3nc4ccccc4c(Nc4ccc(S(=O)(=O)N=C(N)N)cc4)c3c2)cc1 | > 100 µM | > 100 µM | > 100 µM | > 100 µM | > 100 µM | > 100 µM | > 100 µM | > 100 µM | > 100 µM | > 100 µM
Cn1c([O-])nc(-n2cc[n+](C)c2)cc1=O | > 100 µM | > 100 µM | > 100 µM | > 100 µM | > 100 µM | > 100 µM | > 100 µM | > 100 µM | > 100 µM | > 100 µM
c1ccc(/C(=N/Nc2ccccn2)c2ncccn2)cc1 | > 100 µM | > 100 µM | > 44.9 µM | > 100 µM | > 100 µM | > 39.8 µM | 6.27 µM | > 28.7 µM | 0.956 µM | > 100 µM
C=c1c(OC)c(OC)c(O)c2c1=c1cc([N+](=O)[O-])cc(OC)c1=N2 | > 100 µM | > 100 µM | > 100 µM | > 100 µM | > 100 µM | > 100 µM | > 100 µM | > 100 µM | > 100 µM | > 100 µM
